# In patent publication EP0492277A2, “Cephalosporin derivatives” (F. HOFFMANN-LA ROCHE AG, priority 1990, dated 1992):
# What was measured:
# Assay in all cases: MIC, Agar Dilution Method
# Type in all cases: cell-based
# [1] = tested on: Prot. vulgaris ATCC 6380
# Method: (§1) In vitro activity of the compounds of the present invention was measured by the Minimum Inhibitory Concentration (MIC) in micrograms/ml utilizing the Agar Dilution Method, which is well known in the art, against a variety of gram-negative and gram-positive organisms.
# [2] = tested on: K. pneumoniae A
# Method: as §1
# [3] = tested on: Staph. aureus ATCC 29213
# Method: as §1
# [4] = tested on: Ps. aeruginosa 18SH
# Method: as §1
# [5] = tested on: Str. pneumoniae 6301
# Method: as §1
# [6] = tested on: Cit. freundi BS-16
# Method: as §1
# [7] = tested on: Staph. aureus 753
# Method: as §1
# [8] = tested on: E. coli ATCC 25922
# Method: as §1
# [9] = tested on: E. coli TEM-1
# Method: as §1
# [10] = tested on: Staph. aureus 1059B
# Method: as §1
# [11] = tested on: Prot. mirabilis 90
# Method: as §1
# [12] = tested on: Str. pyogenes 4
# Method: as §1
# [13] = tested on: Ps. aeruginosa 5712
# Method: as §1
# [14] = tested on: Staph. aureus 67
# Method: as §1
# [15] = tested on: Staph. aureus Smith
# Method: as §1
# [16] = tested on: Prot. vulgaris 1028 BC
# Method: as §1
# [17] = tested on: Ps. aeruginosa 765
# Method: as §1
# [18] = tested on: Ps. aeruginosa 8780
# Method: as §1
# [19] = tested on: Str. faecalis ATCC 29212
# Method: as §1
# [20] = tested on: Ser. marcescens 1071
# Method: as §1
# [21] = tested on: Enter. cloacae 5699
# Method: as §1
# [22] = tested on: Ps. aeruginosa ATCC 27853
# Method: as §1
# [23] = tested on: Enter. cloacae P99
# Method: as §1
# [24] = tested on: Ser. marcescens SM
# Method: as §1
# [25] = tested on: E. coli 257
# Method: as §1
substance,measurement,setting,value
"[6R-[6α,7β(Z)]]-7-[[(2-Amino-4-thiazolyl)[(1-carboxyl-1-methylethoxy)imino]acetyl]amino]-3-[[4-(3-carboxy-1-cyclopropyl-6-fluoro-1,4-dihydro-4-oxo-7-quinolinyl)-1-piperazinyl]methyl]-8-oxo 5-thia-1-azabicyclo[4.2.0]-oct-2-ene-2-carboxylic acid sodium salt [Compound A]",IN VITRO MIC,[1],0.5 µg/mL
same,IN VITRO MIC,[2],0.5 µg/mL
same,IN VITRO MIC,[3],8 µg/mL
same,IN VITRO MIC,[4],2 µg/mL
same,IN VITRO MIC,[5],0.25 µg/mL
same,IN VITRO MIC,[6],0.125 µg/mL
same,IN VITRO MIC,[7],8 µg/mL
same,IN VITRO MIC,[8],0.25 µg/mL
same,IN VITRO MIC,[9],0.5 µg/mL
same,IN VITRO MIC,[10],4 µg/mL
same,IN VITRO MIC,[11],2 µg/mL
same,IN VITRO MIC,[12],0.25 µg/mL
same,IN VITRO MIC,[13],16 µg/mL
same,IN VITRO MIC,[14],16 µg/mL
same,IN VITRO MIC,[15],8 µg/mL
same,IN VITRO MIC,[16],1 µg/mL
same,IN VITRO MIC,[17],8 µg/mL
same,IN VITRO MIC,[18],8 µg/mL
same,IN VITRO MIC,[19],8 µg/mL
same,IN VITRO MIC,[20],1 µg/mL
same,IN VITRO MIC,[21],1 µg/mL
same,IN VITRO MIC,[22],8 µg/mL
same,IN VITRO MIC,[23],0.5 µg/mL
same,IN VITRO MIC,[24],1 µg/mL
same,IN VITRO MIC,[25],0.25 µg/mL
"[6R-[6a,7β(Z)]]-7-[[(2-Amino-4-thiazolyl)[(carboxymethoxy)imino]acetyl]amino]-3-[[4-(3-carboxy-1-cyclopropyl-6-fluoro-1,4-dihydro-4-oxo-7-quinolinyl)-1-piperazinyl]methyl]-8-oxo-5-thia-1-azabicyclo[4.2.0]-oct-2-ene-2-carboxylic acid sodium salt [Compound B]",IN VITRO MIC,[1],0.25 µg/mL
same,IN VITRO MIC,[2],1 µg/mL
same,IN VITRO MIC,[3],8 µg/mL
same,IN VITRO MIC,[4],4 µg/mL
same,IN VITRO MIC,[5],0.25 µg/mL
same,IN VITRO MIC,[6],1 µg/mL
same,IN VITRO MIC,[7],8 µg/mL
same,IN VITRO MIC,[8],0.5 µg/mL
same,IN VITRO MIC,[9],0.5 µg/mL
same,IN VITRO MIC,[10],2 µg/mL
same,IN VITRO MIC,[11],2 µg/mL
same,IN VITRO MIC,[12],0.125 µg/mL
same,IN VITRO MIC,[13],32 µg/mL
same,IN VITRO MIC,[14],32 µg/mL
same,IN VITRO MIC,[15],8 µg/mL
same,IN VITRO MIC,[16],1 µg/mL
same,IN VITRO MIC,[17],8 µg/mL
same,IN VITRO MIC,[18],8 µg/mL
same,IN VITRO MIC,[19],16 µg/mL
same,IN VITRO MIC,[20],2 µg/mL
same,IN VITRO MIC,[21],1 µg/mL
same,IN VITRO MIC,[22],16 µg/mL
same,IN VITRO MIC,[23],0.25 µg/mL
same,IN VITRO MIC,[24],1 µg/mL
same,IN VITRO MIC,[25],0.25 µg/mL
